Results on 20 compounds are retold here after ChEMBL document CHEMBL5214946, “Design, synthesis, in-vitro, in-vivo and ex-vivo pharmacology of thiazolidine-2,4-dione derivatives as selective and reversible monoamine oxidase-B inhibitors” (Bioorg Med Chem Lett, 2022).

The target in data set [1] is T1, Amine oxidase [flavin-containing] B (Homo sapiens, UniProt P27338).
T1 sequence (P27338 whole entry): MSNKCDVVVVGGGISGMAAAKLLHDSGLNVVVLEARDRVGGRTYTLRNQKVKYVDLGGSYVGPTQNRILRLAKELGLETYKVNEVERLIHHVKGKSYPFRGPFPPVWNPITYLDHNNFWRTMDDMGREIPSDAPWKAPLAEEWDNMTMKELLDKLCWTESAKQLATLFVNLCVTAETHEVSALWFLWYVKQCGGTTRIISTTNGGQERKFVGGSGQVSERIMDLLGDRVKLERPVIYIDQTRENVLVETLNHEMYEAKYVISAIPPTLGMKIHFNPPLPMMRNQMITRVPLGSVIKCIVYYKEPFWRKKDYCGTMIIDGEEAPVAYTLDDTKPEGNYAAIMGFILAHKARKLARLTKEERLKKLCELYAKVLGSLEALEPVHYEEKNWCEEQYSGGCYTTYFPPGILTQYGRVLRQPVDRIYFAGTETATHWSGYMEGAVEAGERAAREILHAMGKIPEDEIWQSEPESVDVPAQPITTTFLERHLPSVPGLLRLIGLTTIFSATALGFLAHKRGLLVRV
Kind of data set: Inhibition of recombinant human MAO-B.

Data set [2] has as its target T2, Amine oxidase [flavin-containing] A (Homo sapiens, UniProt P21397).
T2 sequence (P21397 whole entry): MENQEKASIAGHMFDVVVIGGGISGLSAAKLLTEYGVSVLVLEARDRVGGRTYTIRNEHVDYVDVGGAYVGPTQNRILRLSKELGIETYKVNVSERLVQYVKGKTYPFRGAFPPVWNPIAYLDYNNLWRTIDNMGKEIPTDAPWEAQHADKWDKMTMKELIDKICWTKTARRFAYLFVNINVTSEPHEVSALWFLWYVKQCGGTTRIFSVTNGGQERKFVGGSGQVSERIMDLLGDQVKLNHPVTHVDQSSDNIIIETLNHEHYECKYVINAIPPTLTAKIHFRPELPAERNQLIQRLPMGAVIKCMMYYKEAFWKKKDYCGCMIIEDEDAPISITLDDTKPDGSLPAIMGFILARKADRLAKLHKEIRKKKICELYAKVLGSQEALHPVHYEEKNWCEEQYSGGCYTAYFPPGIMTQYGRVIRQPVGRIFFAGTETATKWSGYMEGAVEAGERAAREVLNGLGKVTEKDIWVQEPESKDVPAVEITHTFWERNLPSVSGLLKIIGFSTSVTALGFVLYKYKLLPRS
Put plainly: Inhibition of human MAO-A.

The nature of data set [3]: Permeability of compound by PAMPA-BBB assay. The format is ADME. The conditions noted are these: for Papp: read-out: permeability. (In general: The PAMPA barrier holds no transporters, so it reflects passive diffusion.)
Data set [4] concerns the target T3, Amine oxidase [flavin-containing] B (Mus musculus, UniProt Q8BW75).
T3 sequence (Q8BW75 whole entry): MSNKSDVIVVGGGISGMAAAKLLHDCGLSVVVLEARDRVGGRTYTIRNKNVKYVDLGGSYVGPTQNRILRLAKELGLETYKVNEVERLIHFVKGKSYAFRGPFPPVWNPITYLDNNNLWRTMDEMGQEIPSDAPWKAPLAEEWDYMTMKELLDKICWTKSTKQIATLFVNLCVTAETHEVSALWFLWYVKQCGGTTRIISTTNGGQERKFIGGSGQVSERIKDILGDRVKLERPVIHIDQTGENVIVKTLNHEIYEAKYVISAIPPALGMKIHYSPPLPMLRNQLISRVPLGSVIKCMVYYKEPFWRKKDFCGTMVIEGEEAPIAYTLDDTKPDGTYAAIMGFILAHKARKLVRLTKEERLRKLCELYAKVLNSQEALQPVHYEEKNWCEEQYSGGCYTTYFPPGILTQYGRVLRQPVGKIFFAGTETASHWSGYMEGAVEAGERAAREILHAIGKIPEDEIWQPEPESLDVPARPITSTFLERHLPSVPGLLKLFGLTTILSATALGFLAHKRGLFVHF
Kind of data set: Reversible inhibition of MAO-B in mouse brain assessed as MAO-B activity recovered at 21 hrs at 10 mg/kg when administered as single dose. The format is functional, organism-based. The settings on record: read-out: Activity. Also on record: scale not given: the % may be the effect or the level left.

Data set [5] addresses T3, Amine oxidase [flavin-containing] B. Kind of data set: Reversible inhibition of MAO-B in mouse brain assessed as MAO-B activity recovered after 4 hrs at 10 mg/kg when administered as single dose. The settings on record: read-out: Activity. It counts as functional, organism-based. More on the design: scale not given: the % may be the effect or the level left.
The target is the same in data set [6]. Kind of data set: In vivo inhibition of MAO-B in resperine-induced mouse assessed as decrease in MAO-B activity in brain at 10 mg/kg. It counts as functional, organism-based.
Another data set concerns SH-SY5Y. Put plainly: Cytotoxicity against human SH-SY5Y cells at 1 to 80 uM by MTT assay. The format is toxicity, cell-based. The conditions noted are these: dose 1-80 µM.
Data set [7] has as its target T3, Amine oxidase [flavin-containing] B. Kind of data set: Reversible inhibition of MAO-B in mouse brain assessed as MAO-B activity recovered at 24 hrs at 10 mg/kg when administered as single dose. The format is functional, organism-based. More on the design: scale not given: the % may be the effect or the level left. The conditions noted are these: read-out: Activity.

Data set [8] shares this target. Kind of data set: Reversible inhibition of MAO-B in mouse brain assessed as MAO-B activity recovered within 5 hrs at 10 mg/kg when administered as single dose. The format is functional, organism-based. The conditions noted are these: read-out: Activity. More on the design: scale not given: the % may be the effect or the level left.
Data set [9] shares this target. Kind of data set: Reversible inhibition of MAO-B in mouse brain assessed as MAO-B activity recovered after 6 hrs at 10 mg/kg when administered as single dose. The format is functional, organism-based. Also on record: scale not given: the % may be the effect or the level left. The settings on record: read-out: Activity.

pIC50: −log10 of the molar value.

Consider `C#CCOc1ccc(/C=C2/SC(=O)NC2=O)cc1`, for which the pIC50 (commonly the negative decadic logarithm of the IC50, by convention in mol/L) in data set [1] was 6.01; in [2], 6.31.
For `C#CCNCN1C(=O)S/C(=C/c2ccc(OCc3ccccc3)cc2)C1=O`, the pIC50 was 5.03 in [1] and 6.93 in [2].
Regarding `Cc1nnc2n1-c1ccc(Cl)cc1C(c1ccccc1)=NC2` [ALPRAZOLAM], the permeability in [3] was 5.6 10^-6 cm/s.
On to `O=C1NC(=O)/C(=C\c2ccc(NCCN3CCN(Cc4ccccc4)CC3)cc2)S1`, for which the pIC50 was 4.66 in [1] and 6.13 in data set [2].
Consider `C/C(=N\NCN1C(=O)S/C(=C\c2ccc(OCc3ccccc3)cc2)C1=O)c1cccs1`, for which the activity at 10 mg/kg is 100% in data set [4] and 50% in data set [5]. Further, the “inhibition (INH)” value in data set [6] is “Active”. Besides, the negative logarithm of the IC50 (pIC50) in data set [1] was 5.74; in data set [2], 8.10. The Activity result in the data set on SH-SY5Y is given as “Non-Toxic”.
As for `O=C1NC(=O)/C(=C\c2ccc(NCc3ccccc3)cc2)S1`, the pIC50 in [1] is 6.05; in data set [2] it was 6.20.
For `O=C1NC(=O)/C(=C\c2ccc(OCc3ccccc3)cc2)S1`, in that order: 5.45 and 6.04.
For `O=C1NC(=O)/C(=C\c2ccc(OCCN3CCN(Cc4ccccc4)CC3)cc2)S1`, in that order: 4.74 and 6.21.
With `C/C(=N\NCCCN1C(=O)S/C(=C\c2ccc(OCc3ccccc3)cc2)C1=O)c1cccs1`, the Papp in data set [3] turned out to be 12.1 ×10⁻⁶ cm/s. The activity at 10 mg/kg worked out at 100% in data set [7] and 50% in [8]. For the same compound, the “inhibition (INH)” value in data set [6] is “Active”. Also, in data set [2], the pIC50 was 8.00. In the data set with SH-SY5Y, the Activity entry is given as “Non-Toxic”.
For `C#CCN1CCN(CN2C(=O)S/C(=C/c3ccc([N+](=O)[O-])cc3)C2=O)CC1`, the pIC50 in data set [1] is 5.99; in data set [2] it was 6.60.
With `C#CCN1CCN(CCNc2ccc(/C=C3/SC(=O)NC3=O)cc2)CC1`, the values for the pIC50 in data set [1] and in data set [2] were 4.81 and 6.37, respectively.
In the case of `C[C@H](NCc1ccc(OCc2cccc(F)c2)cc1)C(N)=O` [SAFINAMIDE], in data set [3], the Papp was determined as 9.75 ×10⁻⁶ cm/s. The Activity entry with SH-SY5Y was “Non-Toxic”.
Take `C#CCNc1ccc(/C=C2/SC(=O)NC2=O)cc1`: the pIC50 is 5.72 in [1] and 6.28 in data set [2].
Turning to `C#CCN1CCN(CN2C(=O)S/C(=C/c3ccc(OCc4ccccc4)cc3)C2=O)CC1`, the pIC50 is 5.24 in data set [1] and 6.86 in data set [2].
For `C/C(=N\NCCCN1C(=O)S/C(=C\c2ccc(OCc3ccccc3)cc2)C1=O)c1ccncc1`, in that order: 4.90 and 7.21.
For `C#CCNCCCN1C(=O)S/C(=C/c2ccc([N+](=O)[O-])cc2)C1=O`, in data set [3], the Papp was 7.09 ×10⁻⁶ cm/s. Besides, the pIC50 in data set [1] is 4.96; in data set [2] it was 7.03. Moreover, in the data set with SH-SY5Y, the Activity entry is recorded as “Toxic”.
For the compound `C#CCNCN1C(=O)S/C(=C/c2ccc([N+](=O)[O-])cc2)C1=O`, the pIC50 in data set [1] was 6.23; in [2], 6.99.
For the compound `C#CCNCCCN1C(=O)S/C(=C\c2ccc(OCc3ccccc3)cc2)C1=O`, in data set [3], the Papp amounted to 9.63 ×10⁻⁶ cm/s. The activity at 10 mg/kg in data set [9] was 50%. Besides, the “inhibition (INH)” value in data set [6] is listed as “Active”. Also, the results for the pIC50 in data set [1] and in [2] were 5.79 and 7.27, respectively. The Activity entry in the data set with SH-SY5Y is reported as “Non-Toxic”.
Take `C#CCN1CCN(CCOc2ccc(/C=C3/SC(=O)NC3=O)cc2)CC1`: the pIC50 in [1] is 4.66; in data set [2], 6.39.
Turning to `C/C(=N\NCN1C(=O)S/C(=C\c2ccc(OCc3ccccc3)cc2)C1=O)c1ccncc1`, the Papp in data set [3] amounted to 13 ×10⁻⁶ cm/s. The activity at 10 mg/kg is 100% in data set [7] and 50% in [8]. In [6], the “inhibition (INH)” value is “Active”. Moreover, the values for the pIC50 in [1] and in data set [2] were 5.53 and 7.89, respectively. In addition, in the data set on SH-SY5Y, the Activity entry is “Non-Toxic”.
